Measurements published in PMC9695599, “N-Terminally Lipidated Sialorphin Analogs—Synthesis, Molecular Modeling, In Vitro Effect on Enkephalins Degradation by NEP and Treatment of Intestinal Inflammation in Mice” (International Journal of Molecular Sciences, 2022).
Residues, ends and D or L forms follow the SMILES beside them.

Experiments:
[1] = biological target: neutral endopeptidase (NEP) (Homo sapiens, UniProt P08473); test: Degradation of Met-enkephalin by NEP alone and in the presence of inhibitors; details: for 1000 × k, degradation rate of Met-enkephalin incubated with NEP in the presence of inhibitor / t1/2, half-life of Met-enkephalin incubated with NEP in the presence of inhibitor: Met-enkephalin 0.0413 mM, inhibitor 0.156 mM, NEP 5.687 nM, Tris–HCl 50 mM pH 7.4, 37 °C, 0, 30, 60, 90, 120 min, RP-HPLC, mean ± SEM, triplicates
Sequence of neutral endopeptidase (NEP) (P08473 whole entry, species assumed): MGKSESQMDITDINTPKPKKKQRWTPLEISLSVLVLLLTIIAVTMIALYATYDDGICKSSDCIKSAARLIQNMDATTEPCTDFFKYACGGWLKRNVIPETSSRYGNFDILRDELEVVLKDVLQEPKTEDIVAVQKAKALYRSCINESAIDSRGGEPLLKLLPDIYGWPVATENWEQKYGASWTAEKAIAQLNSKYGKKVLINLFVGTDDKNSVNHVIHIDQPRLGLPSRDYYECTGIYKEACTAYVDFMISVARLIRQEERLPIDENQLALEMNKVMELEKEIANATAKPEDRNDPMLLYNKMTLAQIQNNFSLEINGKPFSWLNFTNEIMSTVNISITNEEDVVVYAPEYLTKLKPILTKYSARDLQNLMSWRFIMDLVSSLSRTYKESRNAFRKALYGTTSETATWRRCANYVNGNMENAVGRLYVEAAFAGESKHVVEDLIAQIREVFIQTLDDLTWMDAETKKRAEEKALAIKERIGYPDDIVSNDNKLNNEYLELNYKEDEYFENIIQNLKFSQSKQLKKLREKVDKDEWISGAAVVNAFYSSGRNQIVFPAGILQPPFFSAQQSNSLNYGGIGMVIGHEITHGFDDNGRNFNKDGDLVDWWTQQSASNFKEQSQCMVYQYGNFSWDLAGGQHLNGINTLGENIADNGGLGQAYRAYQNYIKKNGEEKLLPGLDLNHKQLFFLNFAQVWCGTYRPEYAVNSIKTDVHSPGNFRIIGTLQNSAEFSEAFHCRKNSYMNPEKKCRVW
Method: Determination of Met-enkephalin degradation rates was performed, as described previously. Purified enzyme NEP was purchased from Merck (Warsaw, Poland). Solutions of Met-enkephalin, NEP, and inhibitors were prepared by dissolving them in a Tris–HCl buffer (50 mM, pH 7.4). In investigated samples, the concentrations of Met-enkephalin, inhibitors, and NEP were, respectively, 0.0413 mM, 0.156 mM, and 5.687 nM. The samples consisting of NEP, Met-enkephalin, and the inhibitor were incubated over 0, 30, 60, 90, and 120 min at 37 °C in a final volume of 300 μL. The reaction was stopped with a 1 M aqueous HCl solution. In the next steps, the samples were centrifuged and the supernatants were filtered and analyzed by RP-HPLC. All measurements were performed in triplicates.

[2] = Stability of peptides in human plasma; assay type: in vitro ADME; details: 37 °C, 200 µL peptide solution (1 mg/mL in PBS pH 7.42) + 50 µL human plasma, ethanol deproteinization, RP-HPLC peak area vs 0 h, at least triplicate; for Stability in human plasma relative to heterodimer of sialorphin and spinorphin, after 4 h: 4 h incubation; for Level of remaining peptide in human plasma relative to heterodimer of sialorphin and spinorphin, after 24 h: 24 h incubation
Method: Compounds VII and VIII were the strongest inhibitors of NEP in vitro and were thus included in stability assays. Peptides were incubated in the human plasma at 37 °C, and their degradation was analyzed by RP HPLC. The stability of peptides VII–VIII was compared to that of a heterodimer of sialorphin and spinorphin and not sialorphin alone. In previously described stability assays of sialorphin alone, the 48% TFA solution was used to precipitate proteins before HPLC analysis. In the case of the peptides VII and VIII, we had to use ethanol instead of the TFA solution. This change was required by the fact that in the latter solution, an emergence of a degradation product that was characterized by identical retention time on HPLC as that of peptides VII and VIII occurred. Consequently, a different reference was used (heterodimer of sialorphin and spinorphin instead of sialorphin).
Plasma-stability assays were performed by applying procedure described by Sobocińska et al.. Each peptide solution was prepared by dissolving 1 mg of a peptide in 1 mL of PBS buffer (pH 7.42). The samples containing the peptide (200 µL) and freshly […] plasma (50 µL) were incubated at 37 °C. The samples were analyzed after 0, 2, 4, and 24 h. At each time interval 40 μL of the mixture was taken and deproteinized by addition of a ethanol (120 µL). The aliquots were centrifuged at 14,500 rpm for 5 min. The supernatants were filtered over Millipore Millex-GV syringe filters (Merck Life Science, Poznan, Poland) and analyzed with RP-HPLC on a Phenomenex Gemini-NX C18 5 µm column (4.6 mm × 150 mm) using the solvent system of 0.1% TFA in water (A) and 0.1% TFA in acetonitrile (B) and linear gradients of 20–80% (B) over 20 min, at a flow rate of 1.5 mL/min. To assess the stability at each time interval, the area of the peptide peak from the chromatogram was calculated and expressed as the percentage of the area of the peak recorded just after mixing a peptide with plasma (0-hour). The assay was performed at least in triplicate for each peptide.

[3] = test system: DSS-induced colitis in mice; test: DSS-induced mouse model of colitis; assay type: in vivo, mouse (male BALB/C); details: for Effect on microscopic damage score / colon architecture (in words): DSS-induced colitis, peptide 1 mg/kg i.p. twice daily day 3-6, hematoxylin-eosin stained distal colon sections, day 7
Method: Male BALB/C mice obtained from University of Lodz, Poland, weighing 22–25 g (6–8 weeks of age), were used. The mice were kept at a constant temperature (22–23 °C) and maintained under a 12 h light/dark cycle with constant access to laboratory chow and tap water. All animal protocols were approved by the Medical University of Lodz Animal Care Committee (Protocol 2/ŁB 123/2019 and 17/ŁB 132/2019) and complied with Directive 2010/63/EU of the European Parliament and of the Council of 22 September 2010. All efforts were made to minimize animal suffering and to reduce the number of animals used.
Colonic inflammation was induced as described before. From day 0 to day 5, mice received DSS: 4% w/v and molecular weight 40,000 (PanReac AppliChem, Darmstadt, Germany) in drinking water. On days 6 and 7, the DSS solution was replaced with tap water. Control animals were given drinking water throughout the whole experiment. Animal body weight was monitored daily. Mice were sacrificed by cervical dislocation on day 7, and colonic damage was evaluated.
Treatment was administered intraperitoneally (i.p.) twice daily from day 3 to day 6 after colitis induction, 100 µL/mouse. Peptides were administered at the dose of 1 mg/kg bw. Control and DSS groups received vehicle alone (100 µL/mouse, i.p.).
On day 7 of the experiment, mice were euthanized. For total macroscopic damage score evaluation, the colon was removed immediately after cervical dislocation and weighed with fecal content. Next, the colon was opened longitudinally, and the feces were removed.
Total macroscopic damage score was calculated based on the stool consistency (0—normal, well-shaped fecal pellets; 3—diarrhea), colon epithelial damage (0–3), and colon length and weight scores, calculated as a loss of each parameter relative to the control group (0 points, ≤5% weight/length loss; 1 point, 5–14% weight/length loss; 2 points, 15–24% weight/length loss; 3 points, 25–35% weight/length loss; and 4 points, ≥35% weight/length loss). […] The presence (score = 1) or absence (score = 0) of fecal blood was also recorded. […]

| SMILES | half-life at 0.0413 mM ([1]; isolated enzyme neprilysin, pH 7.4) | Stability in human plasma relative to heterodimer of sialorphin and spinorphin, after 4 h [2] | Level of remaining peptide in human plasma relative to heterodimer of sialorphin and spinorphin, after 24 h [2] | Effect on microscopic damage score / colon architecture (in words) [3] | 1000 × k, degradation rate of Met-enkephalin incubated with NEP in the presence of inhibitor [1] | t1/2, half-life of Met-enkephalin incubated with NEP in the presence of inhibitor [1] | Total macroscopic damage score ([3]; DSS 4% w/v in drinking water day 0-5, peptide 1 mg/kg i.p. twice daily day 3-6, evaluated day 7, mean ± SEM, n = 5–10, DSS-only 11.20 ± 0.60, control 0.55 ± 0.18) |
| --- | --- | --- | --- | --- | --- | --- | --- |
| CSCC[C@H](NC(=O)[C@H](Cc1ccccc1)NC(=O)CNC(=O)CNC(=O)[C@@H](N)Cc1ccc(O)cc1)C(=O)O [Met-Enkephalin, Met-enkephalin, reference compound] | 27 ± 1 min |  |  |  |  |  |  |
| CCCCCCCCCCCCCCCCCC(=O)N[C@@H](CCCCN)C(=O)N[C@@H](CCCCN)C(=O)N[C@@H](CCC(N)=O)C(=O)N[C@@H](Cc1c[nH]cn1)C(=O)N[C@@H](CC(N)=O)C(=O)N1CCC[C@H]1C(=O)N[C@@H](CCCNC(=N)N)C(=O)O [VIII] (HELM PEPTIDE1{[CCCCCCCCCCCCCCCCCC(=O)[*:2]].K.K.Q.H.N.P.R}$$$$V2.0) |  | 1.4 times | 5.5 times | less pronounced | 0.89 ± 0.10 *** 1/min | 724 ± 43 min |  |
| CCCCCCCCCCCCCC(=O)N[C@@H](CCCCN)C(=O)N[C@@H](CCCCN)C(=O)N[C@@H](CCC(N)=O)C(=O)N[C@@H](Cc1c[nH]cn1)C(=O)N[C@@H](CC(N)=O)C(=O)N1CCC[C@H]1C(=O)N[C@@H](CCCNC(=N)N)C(=O)O [VI] (HELM PEPTIDE1{[CCCCCCCCCCCCCC(=O)[*:2]].K.K.Q.H.N.P.R}$$$$V2.0) |  |  |  |  | 20.06 ± 1.34 ** 1/min | 35 ± 2 min |  |
| CCCCCCCCCCCC(=O)N[C@@H](CCCCN)C(=O)N[C@@H](CCCCN)C(=O)N[C@@H](CCC(N)=O)C(=O)N[C@@H](Cc1c[nH]cn1)C(=O)N[C@@H](CC(N)=O)C(=O)N1CCC[C@H]1C(=O)N[C@@H](CCCNC(=N)N)C(=O)O [V] (HELM PEPTIDE1{[CCCCCCCCCCCC(=O)[*:2]].K.K.Q.H.N.P.R}$$$$V2.0) |  |  |  |  | 23.20 ± 0.89 min⁻¹ | 30 ± 1 min |  |
| CCCCCCCCCCCCCCCC(=O)N[C@@H](CCCCN)C(=O)N[C@@H](CCCCN)C(=O)N[C@@H](CCC(N)=O)C(=O)N[C@@H](Cc1c[nH]cn1)C(=O)N[C@@H](CC(N)=O)C(=O)N1CCC[C@H]1C(=O)N[C@@H](CCCNC(=N)N)C(=O)O [VII] (HELM PEPTIDE1{[CCCCCCCCCCCCCCCC(=O)[*:2]].K.K.Q.H.N.P.R}$$$$V2.0) |  | 1.4 times | 1.3 times | significantly improved colon architecture | 3.46 ± 0.40 *** 1/min | 199 ± 2 min | 10.20 ± 0.99 |
